Holding throughout (format): in vivo
Assay [1] has as its system Plasmodium berghei parasite in Anopheles stephensi mosquitoes. The assay can be described thus: Malaria parasite growth in the body of vector mosquitoes fed with a rare sugar (ookinete, oocyst, sporozoite counts). Particulars: for formation of ookinetes in the midgut of the mosquito: 100 mM rare sugar + 440 mM D-fructose fed, one day after sucking infected blood, vs control. How it is done: In order to block malaria transmission, a vector mosquito is fed with a feed containing a rare sugar in advance, and then made to suck blood of a mouse infected with Plasmodium berghei parasite, whereby garaetocytes are ingested into the midgut of the vector mosquito. Thereafter, the feed containing a rare sugar is continuously given to the mosquito, and at the time point when one day has passed after the gametocytes are ingested into the body, the number of ookinetes in the midgut is evaluated, and then, the number of oocysts on the midgut after 10 days, the number of sporozoites in the midgut and the number of sporozoites in the salivary glands after 18 days are evaluated. In this manner, the malaria parasite growth inhibitory effect of the rare sugar was examined.
First, three groups, each of which includes about 200 Anopheles stephensi mosquitoes, were prepared, and in a first group, a mixed aqueous solution of 100 mM D-allose and 440 mM D-fructose was fed, in a second group, a mixed aqueous solution of 100 mM B-psicose and 440 mM D-fructose was fed, and in a third group, an aqueous solution of 440 mM D-fructose was fed, which was used as a control. Each of these aqueous solutions was placed in an Erlenmeyer flask, and a lower end portion of a filter paper was dipped in the aqueous solution, and Anopheles stephensi mosquitoes were fed with the aqueous solution absorbed in the filter paper.
Further, red blood cells infected with Plasmodium berghei parasite were intraperitoneally administered to BALB/c mice (6 weeks of age, female), whereby mice infected with malaria were prepared.
Anopheles stephensi mosquitoes in each group were made to suck each aqueous solution for 3 days, and thereafter, made to suck blood of the mice infected with Plasmodium berghei malaria, whereby the malaria parasites were incorporated in the body of Anopheles stephensi mosquitoes. Subsequently, while continuously giving the fructose aqueous solution containing a rare sugar or the aqueous solution containing only fructose, the number of parasites in the body of the mosquitoes was evaluated at the below-mentioned timings. That is, 24 hours after sucking infected blood, the number of ookinetes in the midgut was counted, the number of oocysts on the midgut was counted after 10 days, and the number of sporozoites in the midgut and in the salivary glands were counted after 18 days, and the results of the three groups were compared.
The D-allose concentration dependence for malaria parasite growth blocking effect of a rare sugar was examined. Four groups of Anopheles stephensi mosquitoes were prepared, and in a first group to a third group, mixed aqueous solutions of 10 mM, 30 mM, or 100 mM D-allose and 440 mM D-fructose were fed, respectively, and in a fourth group, an aqueous solution of 440 mM D-fructose was fed. In each of these aqueous solutions, a lower end portion of a filter paper was dipped, and Anopheles stephensi mosquitoes were fed with the aqueous solution absorbed in the filter paper.
Anopheles stephensi mosquitoes in each group were made to suck each aqueous solution for 3 days, and thereafter, made to suck blood of the mice infected with Plasmodium berghei malaria, whereby the malaria parasites were incorporated in the body of Anopheles stephensi mosquitoes. Thereafter, while continuously giving the aqueous solution containing a rare sugar or the aqueous solution containing only fructose, the number of parasites in the body of the mosquitoes was counted at respective timings. That is, 24 hours after sucking infected blood, the number of ookinetes in the midgut, was counted, the number of oocysts on the midgut was counted after 10 days, and the number of sporozoites in the midgut and in the salivary glands were counted after 18 days, and the results of the four groups were compared. […]

For assay [2], the system named is Plasmodium berghei transmission from Anopheles stephensi mosquitoes to BALB/c mice. The assay can be described thus: Infectivity to mice: malaria transmission by rare-sugar-fed mosquitoes sucking blood of BALB/c mice. Particulars: for onset of malaria in mice: compared with 10 mM group and fructose single feeding group.
Text: 20 days after sucking blood of an infected mouse, each group of mosquitoes which had been fed with a rare sugar (D-allose or D-psicose) and a control group of mosquitoes which had not been fed with a rare sugar were made to suck blood of mice, and the infectivity of malaria in mice was examined. As a result, in a group in which the mosquitoes fed with D-allose were made to suck blood, malaria infection was not observed in about 70% of mice, and the infection inhibitory effect of a rare sugar was confirmed.
(§1) Each of the Anopheles stephensi mosquitoes in the three groups fed with the feed for 20 days in the above Example 1 was made to suck blood of the BALB/c mice (6 weeks of age, female). In each group, 50 mosquitoes were made to suck blood of 5 mice for 1 minute 5 times for each mouse. Every day from 2 days after sucking blood, a smear preparation was prepared from a small amount of blood collected from the tail of each mouse, followed by Giemsa staining, and thereafter, the presence or absence of parasites was examined with a microscope. In some mice, parasites were confirmed 3 days after sucking blood, and thereafter, the incidence rate increased, however, whether or not malaria was developed was determined based on the presence or absence of parasites at the time point of 14 days after sucking blood in the end.
Each of the Anopheles stephensi mosquitoes in the four groups fed with the feed for 20 days in the above Example 3 was made to suck blood of the BALE/c mice (6 weeks of age, female). In each group, 50 mosquitoes were made to suck blood of 5 mice for 1 minute 5 times for each mouse. Every day from 2 days after sucking blood, a smear preparation was prepared from a small amount of blood collected from the tail of each mouse, followed by Giemsa staining, and thereafter, the presence or absence of parasites was examined with a microscope. Whether or not malaria was developed was determined at the time point of 14 days after sucking blood. […] Also in the 30 mM D-allose feeding group, the incidence rate was 100%, however, malaria was developed one day later as compared with the 10 mM D-ailose feeding group and the fructose single feeding group.
as §1, with “Example 5” for “Example 1”, “the BALE/c” for “the BALB/c”

Assay [3] concerns Plasmodium berghei parasite in Anopheles stephensi mosquitoes. In words: Malaria parasite growth in the body of vector mosquitoes fed with a rare sugar (ookinete, oocyst, sporozoite counts). Particulars: Example 5, D-allose 100 mM + 440 mM D-fructose or Rare Sugar Sweet diluted 2.3 times.
[4] abbreviates: Example 1, 100 mM rare sugar + 440 mM D-fructose, 10 days after sucking blood.
Setting [5] is: Example 1, 100 mM rare sugar + 440 mM D-fructose, 18 days after sucking blood.
[6] abbreviates: Example 2, mosquitoes fed 100 mM rare sugar + Fructose 440 mM for 20 days, determined 14 days after sucking blood.
The mark [7] stands for this setting: Examples 1 and 2, 100 mM rare sugar + 440 mM D-fructose.

Molecules are shown by their SMILES. Entries after “also recorded” stand apart in the source; their conditions may differ.

For the compound `O=C[C@H](O)[C@H](O)[C@H](O)[C@H](O)CO` [D-allose], the “formation of ookinetes in the midgut of the mosquito” value in assay [1] (Example 1) is reported as “not suppressed; also recorded: slight”. For the same compound, the “formation of oocysts on the midgut” value in assay [1] (setting [4]) was “suppressed”. Moreover, the figures for the “number of oocysts suppressed as compared with the control group” value in assay [1] (setting [4]) and in assay [3] (10 days after sucking blood) were 95% and 100%, respectively. In assay [1] (setting [5]), the “formation of sporozoites in the midgut” value is “suppressed”. For the same compound, the “formation of sporozoites in the salivary glands” value in assay [1] (setting [5]) is on record as “suppressed”. For the same compound, the “number of sporozoites in the midgut suppressed as compared with the control group” value stood at 98.7% in assay [1] (setting [5]) and 100% in assay [3] (18 days after sucking blood). Further, the “number of sporozoites in the salivary gland suppressed as compared with the control group” value in assay [1] (setting [5]) was 98.5%. Also, the “number of sporozoites in the salivary glands” value in assay [1] (Example 3, 30 mM D-allose feeding group, 18 days after sucking blood) is reported as “significantly decreased”. Besides, the number of oocysts entry in assay [1] (Example 3, D-allose 10 mM to 100 mM + 440 mM D-fructose, 10 days after sucking blood) is recorded as “suppressed in a D-allose concentration-dependent manner”. Besides, the “growth into ookinetes in the midgut” value in assay [1] (Example 3, D-allose 10 mM to 100 mM + 440 mM D-fructose, one day after sucking blood) is reported as “suppressed in a concentration-dependent manner”. Moreover, the “growth of oocysts on the midgut” value in assay [1] (Example 3, D-allose 100 mM + 440 mM D-fructose, 10 days after sucking blood) is recorded as “almost completely suppressed”. In assay [1] (Example 3, D-allose 100 mM + 440 mM D-fructose, 18 days after sucking blood), the “formation of sporozoites (midgut and salivary glands)” value was “completely suppressed”. Also, the “suppression of the formation of ookinetes in the midgut” value in assay [1] (Example 5, D-allose 100 mM + 440 mM D-fructose or Rare Sugar Sweet diluted 2.3 times, one day after sucking blood) is recorded as “slight”. Besides, the “Incidence rate after sucking blood (%) (mice which developed malaria/mice which had their blood sucked)” value was 29% in assay [2] (setting [6]); 29 (2/7) % in assay [2] (Example 2, mosquitoes fed 100 mM rare sugar + Fructose 440 mM for 20 days, determined 14 days after sucking blood, listed as Allose); 100% in assay [2] (Example 4, Allose 10 mM + Fructose 440 mM, 14 days after sucking blood); 100 (5/5) % in assay [2] (Example 4, Allose 10 mM + Fructose 440 mM, 14 days after sucking blood, listed as Allose); 100% in assay [2] (Example 4, Allose 30 mM + Fructose 440 mM, 14 days after sucking blood); 100 (5/5) % in assay [2] (Example 4, Allose 30 mM + Fructose 440 mM, 14 days after sucking blood, listed as Allose). The “Incidence rate after sucking blood (%) (mice which developed malaria/mice which had their blood sucked)” value in assay [2] (Example 4, Allose 100 mM + Fructose 440 mM, 14 days after sucking blood) is 0 (0/5) %; in assay [2] (Example 6, Allose 100 mM + Fructose 440 mM or Rare Sugar Sweet diluted 2.3 times, 14 days after sucking blood), 0 (0/5) %. The “number of sporozoites inoculated into the mice when having their blood sucked” value in assay [2] (Example 4, 30 mM D-allose feeding group, inferred from onset one day later) is listed as “about one-tenth”. Moreover, the “malaria transmission / development of malaria in mice” value in assay [2] (Example 4, 100 mM D-allose + D-fructose) is listed as “did not develop malaria”. This compound also yielded an incidence rate suppressed in assay [2] (Example 4, 100 mM D-allose feeding group) of 100%. The “onset of malaria in mice” value is recorded as “one day later” in assay [2] (Example 4, Allose 30 mM + Fructose 440 mM) and “The onset was delayed” in assay [2] (Example 4, Allose 30 mM + Fructose 440 mM, listed as Allose). Also, the “malaria transmission (transmission-blocking effect)” value in assay [2] (Example 6, D-allose 100 mM + D-fructose or Rare Sugar Sweet diluted 2.3 times) is given as “completely inhibited; also recorded: completely transmission-blocking effect”; in assay [2] (setting [7]), “significantly suppressed; also recorded: completely blocks”. For the same compound, the “mice in which malaria infection was not observed” value in assay [2] (mosquitoes fed with rare sugar, 20 days after sucking blood of an infected mouse) is recorded as “about 70%”. In addition, the “number of sporozoites in the salivary glands suppressed” value in assay [3] (18 days after sucking blood) was 100%.

On to `O=C(CO)[C@H](O)[C@H](O)[C@H](O)CO` [D-psicose], for which the “formation of ookinetes in the midgut of the mosquito” value in assay [1] (Example 1) is listed as “suppressed to some extent; also recorded: somewhat suppressed”. Also, the “formation of oocysts on the midgut” value in assay [1] (setting [4]) was “slightly promoted”. In assay [1] (setting [5]), the “formation of sporozoites in the salivary glands” value is given as “slightly exceeding that in the control” and the “number of sporozoites in the midgut suppressed as compared with the control group” value was “about 60%”. The “Incidence rate after sucking blood (%) (mice which developed malaria/mice which had their blood sucked)” value in assay [2] (setting [6]) was 100%. Also, the “Incidence rate after sucking blood (%) (mice which developed malaria/mice which had their blood sucked)” value in assay [2] (Example 2, mosquitoes fed 100 mM rare sugar + Fructose 440 mM for 20 days, determined 14 days after sucking blood, listed as Psicose) is on record as 100 (6/6) %. The “malaria transmission (transmission-blocking effect)” value in assay [2] (setting [7]) is listed as “not observed”.

Values taken from patent publication US11324763B2, “Malaria transmission prevention agent having rare sugar as effective component thereof and malarial parasite growth regulating agent” (NATIONAL UNIVERSITY CORPORATION KAGAWA UNIVERSITY, priority 2014, dated 2022).
